In patent US11116740B2, “Methods for use in support of planned supplement and food ingredient products for diagnosis and treatment of metabolic syndrome” (priority 2015, dated 2021):

Assay: Serum fatty acid metabolomics (UPLC-MS/MS), feeding study
Protocol: This study examined global metabolic profiles in six dolphins (“Group A dolphins”). The dolphins lived in netted enclosures within San Diego Bay. The dolphins started on a 100% capelin diet. Group A dolphins were fed one-third of their daily diet in the morning after their routine overnight fast and 2h postprandial, in-water, and trained blood samples were drawn (typically near 10:00 a.m.). An additional four dolphins (“Group C dolphins”) were fed the capelin diet.
Two hour post-prandial samples were collected from the dolphins at baseline (week 0) and at four time points following the switch to the modified diet: 6, 12, 18, and 24 weeks. Routine monthly samples collected from four reference dolphins that were housed in the same environment as the Group A dolphins were assessed for glucose, triglycerides, ferritin, and percent serum fatty acids.
Sample Preparation: Samples were prepared using the automated MicroLab STAR® system from Hamilton Company. Several recovery standards were added prior to the first step in the extraction process for QC purposes. Proteins were precipitated with methanol under vigorous shaking for 2 min (Glen Mills GenoGrinder 2000) followed by centrifugation. The resulting extract was divided into five fractions: two for analysis by two separate reverse phase (RP)/UPLC-MS/MS methods with positive ion mode electrospray ionization (ESI), one for analysis by RP/UPLC-MS/MS with negative ion mode ESI, one for analysis by HILIC/UPLC-MS/MS with negative ion mode ESI, and one sample was reserved. Samples were placed briefly on a TurboVap® (Zymark) to remove the organic solvent. The sample extracts were stored overnight under nitrogen before preparation for analysis.
Ultrahigh Performance Liquid Chromatography-Tandem Mass Spectroscopy (UPLC-MS/[…]): Each of four methods utilized a Waters ACQUITY ultra-performance liquid chromatography (UPLC) and a Thermo Scientific Q-Exactive high resolution/accurate mass spectrometer interfaced with a heated electrospray ionization (HESI-II) source and Orbitrap mass analyzer operated at 35,000 mass resolution. A sample extract was dried, then reconstituted in solvents compatible to each of the four methods. Each reconstitution solvent contained a series of standards at fixed concentrations to ensure injection and chromatographic consistency. A first aliquot was analyzed using acidic positive ion conditions, chromatographically optimized for more hydrophilic compounds. In this method, the extract was gradient eluted from a C18 column (Waters UPLC BEH C18-2. 1×100 mm, 1.7 μm) using water and methanol, containing 0.05% perfluoropentanoic acid (PFPA) and 0.1% formic acid (FA). A second aliquot was also analyzed using acidic positive ion conditions, however it was chromatographically optimized for more hydrophobic compounds. In this method, the extract was gradient eluted from the same afore mentioned C18 column using methanol, acetonitrile, water, 0.05% PFPA and 0.01% FA and was operated at an overall higher organic content. A third aliquot was analyzed using basic negative ion optimized conditions using a separate dedicated C 18 column. The basic extracts were gradient eluted from the column using methanol and water, however with 6.5 mM Ammonium Bicarbonate at pH 8. […] The MS analysis alternated between MS and data-dependent MSn scans using dynamic exclusion. The scan range varied slighted between methods but covered 70-1000 m/z.
Data Extraction and Compound Identification: Raw data was extracted, peak-identified and QC processed using Metabolon's hardware and software. The systems were based on a web-service platform utilizing Microsoft's .NET technologies, which ran on high-performance application servers and fiber-channel storage arrays in clusters to provide active failover and load-balancing. Compounds were identified by comparison to library entries of purified standards or recurrent unknown entities.

[1] = Group A dolphins, modified diet, proportional to value at outset of study
[2] = bottlenose dolphin (Tursiops truncatus), in vivo, 6 weeks
[3] = bottlenose dolphin (Tursiops truncatus), in vivo, 12 weeks
[4] = bottlenose dolphin (Tursiops truncatus), in vivo, 18 weeks
[5] = bottlenose dolphin (Tursiops truncatus), in vivo, 24 weeks

Compound: CCCCCCC=CCCCC(=O)O [5-dodecenoate (12:ln7), 5-dodecenoate]
- serum concentration 6 wk / 0 wk (in vivo): 1.49
- serum concentration 12 wk / 0 wk (in vivo): 1.67
- serum concentration 18 wk / 0 wk (in vivo): 1.08
- serum concentration 24 wk / 0 wk (in vivo): 1.11

Compound: CCCCCCC=CCCCCCCCCC(=O)O [10-heptadecenoate (17:ln7), 10-heptadecenoate]
- serum concentration 6 wk / 0 wk (in vivo): 1.12
- serum concentration 12 wk / 0 wk (in vivo): 1.38
- serum concentration 18 wk / 0 wk (in vivo): 1.35
- serum concentration 24 wk / 0 wk (in vivo): 0.87

Compound: CCCCCCCCC=CCCCCCCCCC(=O)O [10-nonadecenoate (19:ln9), 10-nonadecenoate]
- serum concentration 6 wk / 0 wk (in vivo): 1.05
- serum concentration 12 wk / 0 wk (in vivo): 1.28
- serum concentration 18 wk / 0 wk (in vivo): 1.17
- serum concentration 24 wk / 0 wk (in vivo): 0.8

Compound: C=CCCCCCCCCC(=O)O [10-undecenoate (1 l:ln1), 10-undecenoate]
- serum concentration 6 wk / 0 wk (in vivo): 1.41
- serum concentration 12 wk / 0 wk (in vivo): 1.54
- serum concentration 18 wk / 0 wk (in vivo): 1.22
- serum concentration 24 wk / 0 wk (in vivo): 1.75

Compound: CCCCC/C=C\C/C=C\C/C=C\C/C=C\CCCCCC(=O)O [adrenate (22:4n6), all-cis-7,10,13,16-docosatetraenoic acid]
- serum concentration 6 wk / 0 wk (in vivo): 1.51
- serum concentration 12 wk / 0 wk (in vivo): 2.17
- serum concentration 18 wk / 0 wk (in vivo): 2.82
- serum concentration 24 wk / 0 wk (in vivo): 1.73

Compound: CCCCCC(=O)O [caproate (6:0), caproate]
- serum concentration 6 wk / 0 wk [1]: 0.98
- serum concentration 12 wk / 0 wk [1]: 1.01
- serum concentration 18 wk / 0 wk [1]: 0.92
- serum concentration 24 wk / 0 wk [1]: 0.76

Compound: CCCCCCCC(=O)O [caprylate (8:0), caprylate]
- serum concentration 6 wk / 0 wk [1]: 1.1
- serum concentration 12 wk / 0 wk [1]: 1.07
- serum concentration 18 wk / 0 wk [1]: 0.96
- serum concentration 24 wk / 0 wk [1]: 1.12

Compound: CCCCC/C=C\C/C=C\CCCCCCCCCC(=O)O [dihomo-linoleate (20:2n6), dihomo-linoleate]
- serum concentration 6 wk / 0 wk (in vivo): 0.9
- serum concentration 12 wk / 0 wk (in vivo): 1.12
- serum concentration 24 wk / 0 wk (in vivo): 0.73

Compound: CCCCC/C=C\C/C=C\CCCCCCCCCCCC(=O)O [docosadienoate (22:2n6), docosadienoate]
- serum concentration 6 wk / 0 wk (in vivo): 0.85
- serum concentration 12 wk / 0 wk (in vivo): 1.08
- serum concentration 18 wk / 0 wk (in vivo): 0.99
- serum concentration 24 wk / 0 wk (in vivo): 0.54

Compound: CC/C=C\C/C=C\C/C=C\C/C=C\C/C=C\C/C=C\CCC(=O)O [docosahexaenoate (DHA; 22:6n3), docosahexaenoate]
- serum concentration 6 wk / 0 wk [1]: 1.05
- serum concentration 12 wk / 0 wk [1]: 1.23
- serum concentration 18 wk / 0 wk [1]: 1.06
- serum concentration 24 wk / 0 wk [1]: 0.74

Compound: CCCCC/C=C\C/C=C\C/C=C\C/C=C\C/C=C\CCC(=O)O [docosapentaenoate (n6 DPA; 22:5n6), all-cis-4,7,10,13,16-docosapentaenoic acid]
- serum concentration 6 wk / 0 wk (in vivo): 1.68
- serum concentration 12 wk / 0 wk (in vivo): 2.5
- serum concentration 18 wk / 0 wk (in vivo): 2.33
- serum concentration 24 wk / 0 wk (in vivo): 2.09

Compound: CC/C=C\C/C=C\C/C=C\CCCCCCCCCCCC(=O)O [docosatrienoate (22:3n3), docosatrienoate]
- serum concentration 6 wk / 0 wk (in vivo): 1.08
- serum concentration 12 wk / 0 wk (in vivo): 2.06
- serum concentration 18 wk / 0 wk (in vivo): 1.96
- serum concentration 24 wk / 0 wk (in vivo): 1.06

Compound: CC/C=C\C/C=C\C/C=C\C/C=C\C/C=C\CCCC(=O)O [eicosapentaenoate (EPA; 20:5n3), eicosapentaenoate]
- serum concentration 6 wk / 0 wk [2]: 0.88
- serum concentration 12 wk / 0 wk [3]: 0.99
- serum concentration 18 wk / 0 wk [4]: 0.88
- serum concentration 24 wk / 0 wk [5]: 0.57

Compound: CCCCCCCC/C=C\CCCCCCCCCCCC(=O)O [erucate (22:ln9), erucate]
- serum concentration 6 wk / 0 wk (in vivo): 0.71
- serum concentration 12 wk / 0 wk (in vivo): 0.81
- serum concentration 18 wk / 0 wk (in vivo): 0.68
- serum concentration 24 wk / 0 wk (in vivo): 0.45

Compound: CCCCCCC(=O)O [heptanoate (7:0), heptanoate]
- serum concentration 6 wk / 0 wk [1]: 1.42
- serum concentration 12 wk / 0 wk [1]: 1.02
- serum concentration 18 wk / 0 wk [1]: 1.23
- serum concentration 24 wk / 0 wk [1]: 1.21

Compound: CCCCC/C=C\C/C=C\CCCCCCCC(=O)O [linoleate (18:2n6), linoleate]
- serum concentration 6 wk / 0 wk [2]: 0.87
- serum concentration 12 wk / 0 wk [3]: 0.93
- serum concentration 18 wk / 0 wk [4]: 0.76
- serum concentration 24 wk / 0 wk [5]: 0.66

Compound: CCCCCCCCCCCCCC(=O)O [myristate (14:0), myristate]
- serum concentration 6 wk / 0 wk [1]: 0.8
- serum concentration 12 wk / 0 wk [1]: 0.87
- serum concentration 18 wk / 0 wk [1]: 0.74
- serum concentration 24 wk / 0 wk [1]: 0.58

Compound: CCCC/C=C\CCCCCCCC(=O)O [myristoleate (14:ln5), myristoleate]
- serum concentration 6 wk / 0 wk (in vivo): 1.45
- serum concentration 12 wk / 0 wk (in vivo): 1.55
- serum concentration 18 wk / 0 wk (in vivo): 0.97
- serum concentration 24 wk / 0 wk (in vivo): 1.02

Compound: CCCCCCCC/C=C\CCCCCCCCCCCCCC(=O)O [nervonate (24:ln9)*, nervonate]
- serum concentration 6 wk / 0 wk (in vivo): 0.71
- serum concentration 12 wk / 0 wk (in vivo): 1.41
- serum concentration 18 wk / 0 wk (in vivo): 0.74
- serum concentration 24 wk / 0 wk (in vivo): 0.62

Compound: CCCCCCCCCCCCCCCCCCC(=O)O [nonadecanoate (19:0), nonadecanoate]
- serum concentration 6 wk / 0 wk (in vivo): 1.22
- serum concentration 12 wk / 0 wk (in vivo): 1.65
- serum concentration 18 wk / 0 wk (in vivo): 1.79
- serum concentration 24 wk / 0 wk (in vivo): 1.28

Compound: CCCCCC/C=C\CCCCCCCC(=O)O [palmitoleate (16:ln7), palmitoleate]
- serum concentration 6 wk / 0 wk (in vivo): 0.85
- serum concentration 12 wk / 0 wk (in vivo): 0.99
- serum concentration 18 wk / 0 wk (in vivo): 0.76
- serum concentration 24 wk / 0 wk (in vivo): 0.54

Compound: CCCCCCCCCCCCCCC(=O)O [pentadecanoate (15:0), pentadecanoate]
- serum concentration 6 wk / 0 wk (in vivo): 1.01
- serum concentration 12 wk / 0 wk (in vivo): 1.27
- serum concentration 18 wk / 0 wk (in vivo): 1.42
- serum concentration 24 wk / 0 wk (in vivo): 0.97

Compound: CCCCCCCCC(=O)O [perlargonate (9:0), nonanoic acid]
- serum concentration 6 wk / 0 wk [2]: 1.26
- serum concentration 18 wk / 0 wk [4]: 1.56
- serum concentration 24 wk / 0 wk [5]: 1.41

Compound: CC/C=C\C/C=C\C/C=C\C/C=C\CCCCC(=O)O [stearidonate (18:4n3), stearidonate]
- serum concentration 12 wk / 0 wk (in vivo): 0.71
- serum concentration 18 wk / 0 wk (in vivo): 0.61
- serum concentration 24 wk / 0 wk (in vivo): 0.58

Compound: docosapentaenoate [docosapentaenoate (n3 DPA; 22:5n3)]
- serum concentration 6 wk / 0 wk (in vivo): 1.13
- serum concentration 12 wk / 0 wk (in vivo): 1.37
- serum concentration 18 wk / 0 wk (in vivo): 1.27
- serum concentration 24 wk / 0 wk (in vivo): 0.78

Compound: eicosenoate [eicosenoate (20:1)]
- serum concentration 6 wk / 0 wk (in vivo): 0.72
- serum concentration 12 wk / 0 wk (in vivo): 0.81
- serum concentration 18 wk / 0 wk (in vivo): 0.72
- serum concentration 24 wk / 0 wk (in vivo): 0.43

Compound: linolenate
- serum concentration 6 wk / 0 wk (in vivo): 1.13
- serum concentration 12 wk / 0 wk (in vivo): 1.1
- serum concentration 18 wk / 0 wk (in vivo): 0.97
- serum concentration 24 wk / 0 wk (in vivo): 0.98

Compound: oleate/vaccenate [oleate/vaccenate (18:1)]
- serum concentration 6 wk / 0 wk (in vivo): 0.98
- serum concentration 12 wk / 0 wk (in vivo): 1.04
- serum concentration 18 wk / 0 wk (in vivo): 0.84
- serum concentration 24 wk / 0 wk (in vivo): 0.64
